Assay results taken from ChEMBL document CHEMBL3885881, “DrugMatrix”.

Species on record: Rattus norvegicus
Experiment: DrugMatrix - Regimen: Daily Repeat
Assay type: toxicity, organism-based, Sprague-Dawley
Set-up: regimen Daily Repeat, gender Male, age 6-8 weeks
Settings: in vivo, po, route oral GAVAGE, […]; for ABSOLUTE BASOPHIL / ABSOLUTE EOSINOPHIL / ABSOLUTE LYMPHOCYTE / ABSOLUTE MONOCYTE / ABSOLUTE SEGMENTED NEUTROPHIL / BASOPHIL / EOSINOPHIL / ERYTHROCYTE COUNT / HEMATOCRIT / HEMOGLOBIN / LEUKOCYTE COUNT / LYMPHOCYTE / MEAN CORPUSCULAR HEMOGLOBIN / MEAN CORPUSCULAR HEMOGLOBIN CONCENTRATION / MEAN CORPUSCULAR VOLUME / MONOCYTE / NEUTROPHIL / NUCLEATED RED BLOOD CELLS / PLATELET COUNT: tissue Blood; for ALANINE AMINOTRANSFERASE / ALBUMIN / ALKALINE PHOSPHATASE / ASPARTATE AMINOTRANSFERASE / BLOOD UREA NITROGEN / CARBON DIOXIDE / CHLORIDE / CHOLESTEROL / CREATININE / GLUCOSE / LACTATE DEHYDROGENASE / LIPASE / PHOSPHORUS / POTASSIUM / SODIUM / TOTAL BILIRUBIN / TOTAL PROTEIN / URIC ACID: tissue Plasma
[1] = 0 mg/kg, 72 h, dose level Control, time 3 day
[2] = 0 mg/kg, 120 h, dose level Control, time 5 day
[3] = 250 mg/kg, 72 h, dose level Low, time 3 day

Compound: CC(C)Cc1ccc(CC(=O)O)cc1 [IBUFENAC]
- ABSOLUTE BASOPHIL [1]: 0 CELLS/uL
- ABSOLUTE EOSINOPHIL [1]: 255.83 CELLS/uL
- ABSOLUTE LYMPHOCYTE [1]: 11617.83 CELLS/uL
- ABSOLUTE MONOCYTE [1]: 307.5 CELLS/uL
- ABSOLUTE SEGMENTED NEUTROPHIL [1]: 1902.17 CELLS/uL
- BASOPHIL [1]: 0%
- EOSINOPHIL [1]: 1.83%
- ERYTHROCYTE COUNT [1]: 5.58 x10E6/uL
- HEMATOCRIT [1]: 33.62%
- HEMOGLOBIN [1]: 12.42 G/DL
- LEUKOCYTE COUNT [1]: 14.08 x10E3/uL
- LYMPHOCYTE [1]: 82.67%
- MEAN CORPUSCULAR HEMOGLOBIN [1]: 22.32 pg
- MEAN CORPUSCULAR HEMOGLOBIN CONCENTRATION [1]: 36.98 G/DL
- MEAN CORPUSCULAR VOLUME [1]: 60.4 fL
- MONOCYTE [1]: 2.17%
- NEUTROPHIL [1]: 13.33%
- NUCLEATED RED BLOOD CELLS [1]: 0 /100WBC
- PLATELET COUNT [1]: 1154.67 x10E3/uL
- ALANINE AMINOTRANSFERASE [1]: 64.67 u/L
- ALBUMIN [1]: 4.18 G/DL
- ALKALINE PHOSPHATASE [1]: 382.67 u/L
- ASPARTATE AMINOTRANSFERASE [1]: 123.17 u/L
- BLOOD UREA NITROGEN [1]: 17.67 mg/dL
- CARBON DIOXIDE [1]: 24.33 mmol/L
- CHLORIDE [1]: 101.67 MEQ/L
- CHOLESTEROL [1]: 76.5 mg/dL
- CREATININE [1]: 0.2 mg/dL
- GLUCOSE [1]: 175.33 mg/dL
- LACTATE DEHYDROGENASE [1]: 331 u/L
- LIPASE [1]: 10.17 u/L
- PHOSPHORUS [1]: 12.77 mg/dL
- POTASSIUM [1]: 6.65 MEQ/L
- SODIUM [1]: 145.8 MEQ/L
- TOTAL BILIRUBIN [1]: 0.2 mg/dL
- TOTAL PROTEIN [1]: 6.07 G/DL
- URIC ACID [1]: 1.78 mg/dL
- ABSOLUTE BASOPHIL [2]: 0 CELLS/uL
- ABSOLUTE EOSINOPHIL [2]: 155.33 CELLS/uL
- ABSOLUTE LYMPHOCYTE [2]: 12695.83 CELLS/uL
- ABSOLUTE MONOCYTE [2]: 475.67 CELLS/uL
- ABSOLUTE SEGMENTED NEUTROPHIL [2]: 1989.83 CELLS/uL
- BASOPHIL [2]: 0%
- EOSINOPHIL [2]: 1%
- ERYTHROCYTE COUNT [2]: 5.75 x10E6/uL
- HEMATOCRIT [2]: 34.98%
- HEMOGLOBIN [2]: 12.73 G/DL
- LEUKOCYTE COUNT [2]: 15.32 x10E3/uL
- LYMPHOCYTE [2]: 83%
- MEAN CORPUSCULAR HEMOGLOBIN [2]: 22.17 pg
- MEAN CORPUSCULAR HEMOGLOBIN CONCENTRATION [2]: 36.4 G/DL
- MEAN CORPUSCULAR VOLUME [2]: 60.92 fL
- MONOCYTE [2]: 3%
- NEUTROPHIL [2]: 13%
- NUCLEATED RED BLOOD CELLS [2]: 0 /100WBC
- PLATELET COUNT [2]: 1081.33 x10E3/uL
- ALANINE AMINOTRANSFERASE [2]: 55 u/L
- ALBUMIN [2]: 4.12 G/DL
- ALKALINE PHOSPHATASE [2]: 354.67 u/L
- ASPARTATE AMINOTRANSFERASE [2]: 91 u/L
- BLOOD UREA NITROGEN [2]: 15 mg/dL
- CARBON DIOXIDE [2]: 27.17 mmol/L
- CHLORIDE [2]: 100.5 MEQ/L
- CHOLESTEROL [2]: 71.5 mg/dL
- CREATININE [2]: 0.18 mg/dL
- GLUCOSE [2]: 169.17 mg/dL
- LACTATE DEHYDROGENASE [2]: 324 u/L
- LIPASE [2]: 10.5 u/L
- PHOSPHORUS [2]: 12.07 mg/dL
- POTASSIUM [2]: 6.58 MEQ/L
- SODIUM [2]: 141.92 MEQ/L
- TOTAL BILIRUBIN [2]: 0.12 mg/dL
- TOTAL PROTEIN [2]: 5.88 G/DL
- URIC ACID [2]: 1.6 mg/dL
- ABSOLUTE BASOPHIL [3]: 0 CELLS/uL
- ABSOLUTE EOSINOPHIL [3]: 268.67 CELLS/uL
- ABSOLUTE LYMPHOCYTE [3]: 13501.33 CELLS/uL
- ABSOLUTE MONOCYTE [3]: 489 CELLS/uL
- ABSOLUTE SEGMENTED NEUTROPHIL [3]: 2041 CELLS/uL
- BASOPHIL [3]: 0%
- EOSINOPHIL [3]: 1.67%
- ERYTHROCYTE COUNT [3]: 5.57 x10E6/uL
- HEMATOCRIT [3]: 33.83%
- HEMOGLOBIN [3]: 12.4 G/DL
- LEUKOCYTE COUNT [3]: 16.3 x10E3/uL
- LYMPHOCYTE [3]: 83%
- MEAN CORPUSCULAR HEMOGLOBIN [3]: 22.23 pg
- MEAN CORPUSCULAR HEMOGLOBIN CONCENTRATION [3]: 36.67 G/DL
- MEAN CORPUSCULAR VOLUME [3]: 60.7 fL
- MONOCYTE [3]: 3%
- NEUTROPHIL [3]: 12.33%
- NUCLEATED RED BLOOD CELLS [3]: 0 /100WBC
- PLATELET COUNT [3]: 1296 x10E3/uL
- ALANINE AMINOTRANSFERASE [3]: 64.67 u/L
- ALBUMIN [3]: 4.3 G/DL
- ALKALINE PHOSPHATASE [3]: 362.33 u/L
- ASPARTATE AMINOTRANSFERASE [3]: 94.67 u/L
- BLOOD UREA NITROGEN [3]: 15.67 mg/dL
- CARBON DIOXIDE [3]: 26.67 mmol/L
- CHLORIDE [3]: 103 MEQ/L
- CHOLESTEROL [3]: 79.33 mg/dL
- CREATININE [3]: 0.15 mg/dL
- GLUCOSE [3]: 164.67 mg/dL
- LACTATE DEHYDROGENASE [3]: 128.67 u/L
- LIPASE [3]: 9.67 u/L
- PHOSPHORUS [3]: 11.4 mg/dL
- POTASSIUM [3]: 6.53 MEQ/L
- SODIUM [3]: 146.97 MEQ/L
- TOTAL BILIRUBIN [3]: 0.17 mg/dL
- TOTAL PROTEIN [3]: 6.03 G/DL
- URIC ACID [3]: 1.43 mg/dL
